Converted amounts (≈) assume the structure as drawn.
Legend:
[1] = test system: Mycobacterium tuberculosis variant bovis; assay: Antitubercular activity against Mycobacterium bovis BCG infected in mouse J774.A1 cells assessed as reduction in intracellular bacterial load incubated for 6 days; type: functional; settings: 144 h, time 6 day
[2] = test system: Mycobacterium tuberculosis variant bovis; assay: Antitubercular activity against Mycobacterium bovis BCG assessed as bacterial growth inhibition incubated for 14 days by agar plate method; type: functional; settings: 336 h, time 14 day
[3] = test system: Mycobacterium tuberculosis variant bovis; assay: Antitubercular activity against Mycobacterium bovis BCG assessed as bacterial growth inhibition; type: functional
[4] = test system: Mycobacterium tuberculosis variant bovis; assay: Antitubercular activity against Mycobacterium bovis BCG assessed as minimum bactericidal concentration for 99.9% activity; type: functional; settings: read-out: MBC99.9
[5] = test system: Mycobacterium tuberculosis variant bovis; assay: Antitubercular activity against Mycobacterium bovis assessed as bacterial growth inhibition; type: functional
[6] = test system: Mycobacterium tuberculosis variant bovis; assay: Antitubercular activity against Mycobacterium bovis BCG assessed as bacterial growth inhibition incubated for 24 hrs by [14C]-acetate labelling based radiometric analysis; type: functional
[7] = test system: Mycobacterium tuberculosis variant bovis; assay: Inhibition of mycolic acid biosynthesis in Mycobacterium bovis BCG assessed as decrease in methoxy-mycolic acid in presence of 14C-labeled acetic acid incubated for 60 mins by photo-stimulated luminescence analysis; type: functional, organism-based; settings: 1 h
[8] = test system: Mycobacterium tuberculosis variant bovis; assay: Inhibition of mycolic acid biosynthesis in Mycobacterium bovis BCG assessed as decrease in keto-mycolic acid in presence of 14C-labeled acetic acid incubated for 60 mins by photo-stimulated luminescence analysis; type: functional, organism-based; settings: 1 h
[9] = test system: Mycobacterium tuberculosis variant bovis; assay: Antitubercular activity against Mycobacterium tuberculosis variant bovis assessed as bacterial growth inhibition; type: functional

Q: With `COC(=O)c1c(NC(=O)c2c(F)c(F)c(F)c(F)c2F)sc2c1CCCCC2` as the molecule, how does the MIC [1] read?
A: 12.8 µM (≈ 5.37 µg/mL)

Q: `Cc1cc2oc(=O)cc(-c3cccc(N)c3)c2c(C)c1-c1ccc(CN2CCOCC2)cc1` was tested. Which MIC [2] did it give?
A: 0.71 µM (≈ 0.313 µg/mL)

Q: `CCCCCCCCn1cc(CN2CCCCCC2)c2c(F)cccc21` was tested. Which MIC50 [3] did it give?
A: 0.3 µM (≈ 0.108 µg/mL)

Q: What about the MBC [4] of the same molecule?
A: 12 µM (≈ 4.3 µg/mL)

Q: Which results are given for `CCCCCCCCn1cc(CN2CCC3(CC2)OCCCO3)c2ccc(OC)cc21`?
A: MIC50 [3]: 0.3 µM (≈ 0.129 µg/mL); MBC [4]: 1.2 µM (≈ 0.514 µg/mL)

Q: Which MIC50 [5] does the source give for `COc1cccc2ccn(CCCCC[P+](c3ccccc3)(c3ccccc3)c3ccccc3)c12` here?
A: 2 µM

Q: How did the MIC [6] turn out when `CCc1ccc([C@H]2C[C@@H](C(F)(F)F)n3ncc(C(=O)NCc4ccc5c(c4)OCO5)c3N2)cc1` was run?
A: 0.8 µM (≈ 0.378 µg/mL)

Q: For `O=[N+]([O-])c1cccc2c1ccn2CCCCC[P+](c1ccccc1)(c1ccccc1)c1ccccc1`, which MIC50 [5] is on record?
A: 3 µM

Q: With `CCc1ccc([C@H]2C[C@@H](C(F)(F)F)n3ncc(C(=O)NCc4ccc(OC)cc4)c3N2)cc1` as the molecule, how does the MIC [6] read?
A: 0.3 µM (≈ 0.138 µg/mL)

Q: `COC(=O)c1c(NC(=O)c2c(F)c(F)c(F)c(F)c2F)sc(C(N)=O)c1C` was tested. Which MIC [1] did it give?
A: 6.4 µM (≈ 2.61 µg/mL)

Q: Which IC50 [7] does the source give for `C[C@@]1(COc2ccc(N3CCC(Oc4ccc(OC(F)(F)F)cc4)CC3)cc2)Cn2cc([N+](=O)[O-])nc2O1` here?
A: 0.63 µg/mL

Q: And the IC50 [8]?
A: 0.69 µg/mL

Q: `COc1nc2ccc(Br)cc2cc1[C@@H](c1ccccc1)[C@@](O)(CCN(C)C)c1cccc2ccccc12` [BEDAQUILINE] was tested. Which MIC [5] did it give?
A: 0.003 µg/mL (≈ 5.4 nM)

Q: With `NNC(=O)c1ccncc1` [ISONIAZID] as the molecule, how does the IC50 [7] read?
A: 0.036 µg/mL

Q: What about the IC50 [8] of the same molecule?
A: 0.021 µg/mL

Q: How did the MIC [9] turn out when `CCc1nc2ccc(Cl)cn2c1C(=O)NCc1ccc(N2CCC(c3ccc(OC(F)(F)F)cc3)CC2)cc1` [TELACEBEC] was run?
A: 0.0035 µM (≈ 0.00195 µg/mL)

Reference: ChEMBL document CHEMBL5260858, “Targeting mycobacterial membranes and membrane proteins: Progress and limitations” (Bioorg Med Chem, 2023)
